Measurements taken from patent publication US3988316A, “Antibiotics sisomicin and verdamicin I and complex containing same” (Schering Corporation, priority 1975, dated 1976).
Structures can show the parent of a compound that is named as a salt.

Tests used:
Escherichia coli 10536 = assay: Protective Activity in Mice; format: in vivo; conditions: S.C., single dose one hour after intraperitoneal infection
Description: (§1) Verdamicin I was tested against four (4) species of infectious bacteria in mice and was administered as a single subcutaneous dose one (1) hour after infection via intraperitoneal injection of a lethal quantity of pathogen.
(§2) Results obtained with gentamicin are set for comparison.

[1] = tested on: Staphylococcus aureus Gray; assay: Protective Activity in Mice; format: in vivo; conditions: S.C., single dose one hour after intraperitoneal infection
Description: as §1, §2

Streptococcus pyogenes C = assay: Protective Activity in Mice; format: in vivo; conditions: S.C., single dose one hour after intraperitoneal infection
Description: as §1, §2

[2] = tested on: Pseudomonas aeruginosa 8689; assay: Protective Activity in Mice; format: in vivo; conditions: S.C., single dose one hour after intraperitoneal infection
Description: as §1, §2

[3] = tested on: Staphylococcus aureus ATCC 6538P; assay: Disc plate microbiological assay
Description: Th microbiological assay of the antibiotic substances is a disc plate assay using Staphylococcus aureus ATCC 6538P as test organism.

[4] = pKa (Chemical and Physical Properties of Verdamicin I); format: physicochemical; conditions: base
Text: In table VI below are set forth physical properties of […] as the hydrated free nitrogen base and as the sulfuric acid addition salt (sulfate).

[5] = tested on: gram-positive and gram-negative organisms; assay: In vivo antibacterial activity in mice (in words)
Description: as §1, §2

[6] = tested on: gram positive and gram-negative bacteria; assay: In vitro antibacterial activity, Verdamicin I (in words); format: cell-based
in vivo = conditions: mouse, iv

Compound: gentamicin [reference compound]
- PD50 (Escherichia coli 10536): 1.7 mg/kg
- PD50 [1]: 2.4 mg/kg
- PD50 (Streptococcus pyogenes C): 5.0 mg/kg
- PD50 [2]: 1.7 mg/kg

Compound: CN[C@@H]1[C@@H](O)[C@@H](O[C@@H]2[C@@H](O)[C@H](O[C@H]3OC(C(C)N)=CC[C@H]3N)[C@@H](N)C[C@H]2N)OC[C@]1(C)O (stereo partly drawn) [Verdamicin I Sulfate]
- potency against its own base as the comparison standard ([3]; own base as comparison standard): 695 meg/mg

Compound: CN[C@@H]1[C@@H](O)[C@@H](O[C@@H]2[C@@H](O)[C@H](O[C@H]3OC(C(C)N)=CC[C@H]3N)[C@@H](N)C[C@H]2N)OC[C@]1(C)O (stereo partly drawn) [Verdamicin I]
- pKa [4]: 8.1
- in vivo antibacterial activity [5]: potent antibacterial agent
- dose response curve ([3]; gentamicin assay): parallel to that of gentamicin
- zone of inhibition ([3]; one meg. of standard): 17.0 ± 1.3 mm
- antibacterial activity in vitro [6]: broad spectrum of antibacterial activity
- ED50 (Escherichia coli 10536; Escherichia coli, 10536, sc, 1 h, read-out: PD50): 1.5 mg/kg
- ED50 ([1]; Staphylococcus aureus, sc, 1 h, read-out: PD50): 2.5 mg/kg
- ED50 (Streptococcus pyogenes C; Streptococcus pyogenes, sc, 1 h, read-out: PD50): 1 mg/kg
- ED50 ([2]; Pseudomonas aeruginosa, 8689, sc, 1 h, read-out: PD50): 2 mg/kg
- LD50 (in vivo): 75 mg/kg
